The target in this assay is T1, recombinant human GR (Homo sapiens, UniProt P04150).
T1 construct: purchased Panvera/Invitrogen P2812 (kit P2893)
T1 sequence (P04150 1-777): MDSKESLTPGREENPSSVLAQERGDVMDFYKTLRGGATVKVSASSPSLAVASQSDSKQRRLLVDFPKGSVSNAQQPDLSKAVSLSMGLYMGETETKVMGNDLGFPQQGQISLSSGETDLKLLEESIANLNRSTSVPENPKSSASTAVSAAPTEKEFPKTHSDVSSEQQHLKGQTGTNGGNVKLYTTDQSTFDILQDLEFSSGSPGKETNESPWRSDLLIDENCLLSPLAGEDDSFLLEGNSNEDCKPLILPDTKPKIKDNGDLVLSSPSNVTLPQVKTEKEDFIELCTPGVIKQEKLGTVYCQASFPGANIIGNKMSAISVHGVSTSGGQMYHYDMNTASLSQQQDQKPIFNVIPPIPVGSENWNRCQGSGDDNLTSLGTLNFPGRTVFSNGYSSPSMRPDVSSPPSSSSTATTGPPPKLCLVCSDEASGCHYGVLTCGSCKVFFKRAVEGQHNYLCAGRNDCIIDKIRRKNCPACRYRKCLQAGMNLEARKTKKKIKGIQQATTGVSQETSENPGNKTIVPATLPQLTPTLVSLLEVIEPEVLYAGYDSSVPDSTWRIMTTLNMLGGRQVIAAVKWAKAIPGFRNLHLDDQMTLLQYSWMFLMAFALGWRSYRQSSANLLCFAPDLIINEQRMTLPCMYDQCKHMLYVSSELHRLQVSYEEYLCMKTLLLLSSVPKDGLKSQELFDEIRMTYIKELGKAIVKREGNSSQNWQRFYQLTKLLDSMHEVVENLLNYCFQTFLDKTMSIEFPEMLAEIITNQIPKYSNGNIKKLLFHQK
As to the kind of experiment: Human Glucocorticoid Receptor (GR) Assay (fluorescence polarization, Panvera/Invitrogen kit). The settings on record: GS Red tracer, 2 hours at room temperature, 100% control 10 μM Dexamethasone, read-out: Inhibition of GR binding, IC50. On the procedure:
Human Glucocorticoid Receptor (GR) Assay The assay is based on a commercial kit from Panvera/Invitrogen (Part number P2893). The assay technology is fluorescence polarization. The kit utilises recombinant human GR (Panvera, Part number P2812), a Fluoromone™ labelled tracer (GS Red, Panvera, Part number P2894) and a Stabilizing Peptide 10× (Panvera, Part number P2815). The GR and Stabilizing Peptide reagents are stored at −70° C. while the GS Red is stored at −20° C. Also included in the kit are 1M DTT (Panvera, Part number P2325, stored at −20° C.) and GR Screening buffer 10× (Panvera, Part number P2814, stored at −70° C. initially but once thawed stored at room temperature). Avoid repeated freeze/thaws for all reagents. The GR Screening buffer 10× comprises 100 mM potassium phosphate, 200 mM sodium molybdate, 1 mM EDTA and 20% DMSO. Test compounds (1 μL) and controls (1 μL) in 100% DMSO were added to black polystyrene 384-well plates (Greiner low volume black flat-bottom, part number 784076). 0% control was 100% DMSO and 100% control was 10 μM Dexamethasone. Background solution (8 μL; assay buffer 10×, Stabilizing Peptide, DTT and ice cold MQ water) was added to the background wells. GS Red solution (7 μL; assay buffer 10×, Stabilizing Peptide, DTT, GS Red and ice cold water) was added to all wells except background wells. GR solution (7 μL; assay buffer 10×, Stabilizing Peptide, DTT, GR and ice cold water) was added to all wells. The plate was sealed and incubated in a dark at room temperature for 2 hours. The plate was read in an Analyst plate reader (LJL Biosystems/Molecular Devices Corporation) or other similar plate reader capable of recording fluorescence polarization (excitation wavelength 530 nm, emission wavelength 590 nm and a dichroic mirror at 561 nm).
(Fluorescence polarisation rises when a labelled molecule tumbles more slowly, as on binding a larger partner.)
With `Cc1ccc(C2O[C@@H]3C[C@H]4[C@@H]5C[C@H](F)C6=CC(=O)C=C[C@]6(C)[C@@]5(F)[C@@H](O)C[C@]4(C)[C@]3(C(=O)SCC#N)O2)cc1` (stereo partly drawn) [Example 24, S-(Cyanomethyl)(4aS,4bR,5S,6aS,6bS,9aR,10aS,10bS,12S)-4b,12-difluoro-5-hydroxy-4a,6a-dimethyl-8-(4-methylphenyl)-2-oxo-2,4a,4b,5,6,6a,9a,10,10a,10b,11,12-dodecahydro-6bH-naphtho[2′,1′:4,5]indeno[1,2-d][1,3]dioxole-6b-carbothioate], the half-inhibitory concentration (IC50) (as a rule, the concentration needed to halve the response being measured) came out at 1.2 nM.

Regarding `Cc1ccccc1C1O[C@@H]2C[C@H]3[C@@H]4C[C@H](F)C5=CC(=O)C=C[C@]5(C)[C@@]4(F)[C@@H](O)C[C@]3(C)[C@]2(C(=O)SCF)O1` (stereo partly drawn) [Example 22, S-(Fluoromethyl)(4aS,4bR,5S,6aS,6bS,9aR,10aS,10bS,12S)-4b,12-difluoro-5-hydroxy-4a,6a-dimethyl-8-(2-methylphenyl)-2-oxo-2,4a,4b,5,6,6a,9a,10,10a,10b,11,12-dodecahydro-6bH-naphtho[2′,1′:4,5]indeno[1,2-d][1,3]dioxole-6b-carbothioate], the IC50 stood at 0.85 nM.

As for `Cc1ccc(C2O[C@@H]3C[C@H]4[C@@H]5C[C@H](F)C6=CC(=O)C=C[C@]6(C)[C@@]5(F)[C@@H](O)C[C@]4(C)[C@]3(C(=O)SCC#N)O2)o1` (stereo partly drawn) [Example 10, S-(Cyanomethyl)(4aS,4bR,5S,6aS,6bS,9aR,10aS,10bS,12S)-4b,12-difluoro-5-hydroxy-4a,6a-dimethyl-8-(5-methyl-2-furyl)-2-oxo-2,4a,4b,5,6,6a,9a,10,10a,10b,11,12-dodecahydro-6bH-naphtho[2′,1′:4,5]indeno[1,2-d][1,3]dioxole-6b-carbothioate], the IC50 is 1.1 nM.

Regarding `C[C@]12C=CC(=O)C=C1[C@@H](F)C[C@H]1[C@@H]3C[C@H]4OC(c5ccc(C(F)(F)F)cc5)O[C@@]4(C(=O)SCF)[C@@]3(C)C[C@H](O)[C@@]12F` (stereo partly drawn) [Example 18, S-(Fluoromethyl)(4aS,4bR,5S,6aS,6bS,9aR,10aS,10bS,12S)-4b,12-difluoro-5-hydroxy-4a,6a-dimethyl-2-oxo-8-[4-(trifluoromethyl)phenyl]-2,4a,4b,5,6,6a,9a,10,10a,10b,11,12-dodecahydro-6bH-naphtho[2′,1′:4,5]indeno[1,2-d][1,3]dioxole-6b-carbothioate], the IC50 stood at 3.7 nM.

Take `C[C@]12C=CC(=O)C=C1[C@@H](F)C[C@H]1[C@@H]3C[C@H]4OC(c5ccc(Cl)cc5)O[C@@]4(C(=O)SCF)[C@@]3(C)C[C@H](O)[C@@]12F` (stereo partly drawn) [Example 29, S-(Fluoromethyl)(4aS,4bR,5S,6aS,6bS,9aR,10aS,10bS,12S)-8-(4-chlorophenyl)-4b,12-difluoro-5-hydroxy-4a,6a-dimethyl-2-oxo-2,4a,4b,5,6,6a,9a,10,10a,10b,11,12-dodecahydro-6bH-naphtho[2′,1′:4,5]indeno[1,2-d][1,3]dioxole-6b-carbothioate]: the 50% inhibitory concentration (IC50) was found to be 1.3 nM.

Consider `COc1ccc(C2O[C@@H]3C[C@H]4[C@@H]5CCC6=CC(=O)C=C[C@]6(C)[C@H]5[C@@H](O)C[C@]4(C)[C@]3(C(=O)SCC#N)O2)c(F)c1` (stereo partly drawn) [Example 37, S-(Cyanomethyl)(4aR,4bS,5S,6aS,6bS,9aR,10aS,10bS)-8-(2-fluoro-4-methoxyphenyl)-5-hydroxy-4a,6a-dimethyl-2-oxo-2,4a,4b,5,6,6a,9a,10,10a,10b,11,12-dodecahydro-6bH-naphtho[2′,1′:4,5]indeno[1,2-d][1,3]dioxole-6b-carbothioate], for which the IC50 worked out at 1.4 nM.

Consider `C[C@]12C=CC(=O)C=C1CC[C@@H]1[C@@H]2[C@@H](O)C[C@@]2(C)[C@H]1C[C@H]1O[C@@H](c3cccs3)O[C@]12C(=O)SCF` [Example 35, S-(Fluoromethyl)(4aR,4bS,5S,6aS,6bS,8R,9aR,10aS,10bS)-5-hydroxy-4a,6a-dimethyl-2-oxo-8-thiophen-2-yl-2,4a,4b,5,6,6a,9a,10,10a,10,11,12-dodecahydro-6bH-naphtho[2′,1′:4,5]indeno[1,2-d][1,3]dioxole-6b-carbothioate], for which the 50% inhibitory concentration (IC50) is 1.1 nM.

`Cc1ccc(C2O[C@@H]3C[C@H]4[C@@H]5CCC6=CC(=O)C=C[C@]6(C)[C@H]5[C@@H](O)C[C@]4(C)[C@]3(C(=O)SCC#N)O2)c(C)c1` (stereo partly drawn) [Example 36, S-(Cyanomethyl)(4aR,4bS,5S,6aS,6bS,9aR,10aS,10bS)-8-(2,4-dimethylphenyl)-5-hydroxy-4a,6a-dimethyl-2-oxo-2,4a,4b,5,6,6a,9a,10,10a,10,11,12-dodecahydro-6bH-naphtho[2′,1′:4,5]indeno[1,2-d][1,3]dioxole-6b-carbothioate]: the concentration for half-maximal inhibition (IC50) was found to be 2.7 nM.

On to `C[C@]12C=CC(=O)C=C1[C@@H](F)C[C@H]1[C@@H]3C[C@H]4OC(c5cccs5)O[C@@]4(C(=O)SCC#N)[C@@]3(C)C[C@H](O)[C@@]12F` (stereo partly drawn) [Example 9, S-(Cyanomethyl)(4aS,4bR,5S,6aS,6bS,9aR,10aS,10bS,12S)-4b,12-difluoro-5-hydroxy-4a,6a-dimethyl-2-oxo-8-(2-thienyl)-2,4a,4b,5,6,6a,9a,10,10a,10b,11,12-dodecahydro-6bH-naphtho[2′,1′:4,5]indeno[1,2-d][1,3]dioxole-6b-carbothioate], for which the IC50 turned out to be 0.57 nM.

Turning to `Cc1ccsc1C1O[C@@H]2C[C@H]3[C@@H]4C[C@H](F)C5=CC(=O)C=C[C@]5(C)[C@@]4(F)[C@@H](O)C[C@]3(C)[C@]2(C(=O)SCF)O1` (stereo partly drawn) [Example 13, S-(Fluoromethyl)(4aS,4bR,5S,6aS,6bS,9aR,10aS,10bS,12S)-4b,12-difluoro-5-hydroxy-4a,6a-dimethyl-8-(3-methyl-2-thienyl)-2-oxo-2,4a,4b,5,6,6a,9a,10,10a,10b,11,12-dodecahydro-6bH-naphtho[2′,1′:4,5]indeno[1,2-d][1,3]dioxole-6b-carbothioate], the half-inhibitory concentration (IC50) worked out at 0.55 nM.

For `C[C@]12C=CC(=O)C=C1[C@@H](F)C[C@H]1[C@@H]3C[C@H]4OC(c5cccc(F)c5)O[C@@]4(C(=O)SCC#N)[C@@]3(C)C[C@H](O)[C@@]12F` (stereo partly drawn) [Example 23, S-(Cyanomethyl)(4aS,4bR,5S,6aS,6bS,9aR,10aS,10bS,12S)-4b,12-difluoro-8-(3-fluorophenyl)-5-hydroxy-4a,6a-dimethyl-2-oxo-2,4a,4b,5,6,6a,9a,10,10a,10b,11,12-dodecahydro-6bH-naphtho[2′,1′:4,5]indeno[1,2-d][1,3]dioxole-6b-carbothioate], the IC50 stood at 0.99 nM.

For the compound `COc1ccc([C@@H]2O[C@@H]3C[C@H]4[C@@H]5CCC6=CC(=O)C=C[C@]6(C)[C@H]5[C@@H](O)C[C@]4(C)[C@]3(C(=O)SC)O2)c(F)c1` [Example 38 (8R), S-Methyl (4aR,4bS,5S,6aS,6bS,8R,9aR,10aS,10bS)-8-(2-fluoro-4-methoxyphenyl)-5-hydroxy-4a,6a-dimethyl-2-oxo-2,4a,4b,5,6,6a,9a,10,10a,10b,11,12-dodecahydro-6bH-naphtho[2′,1′:4,5]indeno[1,2-d][1,3]dioxole-6b-carbothioate], the IC50 was 2.2 nM.

For `C[C@]12C=CC(=O)C=C1[C@@H](F)C[C@H]1[C@@H]3C[C@H]4OC(c5ccccc5F)O[C@@]4(C(=O)SCF)[C@@]3(C)C[C@H](O)[C@@]12F` (stereo partly drawn) [Example 21, S-(Fluoromethyl)(4aS,4bR,5S,6aS,6bS,9aR,10aS,10bS,12S)-4b,12-difluoro-8-(2-fluorophenyl)-5-hydroxy-4a,6a-dimethyl-2-oxo-2,4a,4b,5,6,6a,9a,10,10a,10b,11,12-dodecahydro-6bH-naphtho[2′,1′:4,5]indeno[1,2-d][1,3]dioxole-6b-carbothioate], the concentration for half-maximal inhibition (IC50) amounted to 0.57 nM.
